Laboratory results published in PubChem BioAssay (NCI).
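Growth conditions: 96-well plates. Treatment: test compound, 48 hours, 5 concentrations. Analysis: linear interpolation between bracketing concentrations; unreached endpoints set to highest concentration. GI50 marks 50% less growth. TGI: concentration producing complete growth inhibition.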

Tests used:
Assay in all cases: DTP human tumour cell line panel, 48 h
SF-268 CNS = system: SF-268 CNS
SN12C renal = system: SN12C renal
IGROV1 ovarian = system: IGROV1 ovarian
CCRF-CEM leukemia = system: CCRF-CEM leukemia
A498 renal = system: A498 renal
HOP-62 NSCLC = system: HOP-62 NSCLC
SNB-19 CNS = system: SNB-19 CNS
UACC-62 melanoma = system: UACC-62 melanoma
NCI-H23 lung = system: NCI-H23 lung
RPMI-8226 leukemia = system: RPMI-8226 leukemia
SK-MEL-2 melanoma = system: SK-MEL-2 melanoma
U251 CNS = system: U251 CNS
NCI/ADR-RES ovarian = system: NCI/ADR-RES ovarian
HCT-116 colon = system: HCT-116 colon
SK-MEL-28 melanoma = system: SK-MEL-28 melanoma
OVCAR-3 ovarian = system: OVCAR-3 ovarian
MALME-3M melanoma = system: MALME-3M melanoma
KM12 colon = system: KM12 colon
HL-60(TB) leukemia = system: HL-60(TB) leukemia
MDA-MB-435 = system: MDA-MB-435
NCI-H522 lung = system: NCI-H522 lung
HT29 colon = system: HT29 colon
COLO 205 colon = system: COLO 205 colon
SR leukemia = system: SR leukemia
BT-549 breast = system: BT-549 breast
SF-539 CNS = system: SF-539 CNS
OVCAR-8 ovarian = system: OVCAR-8 ovarian
ACHN renal = system: ACHN renal
HS 578T breast = system: HS 578T breast
DU-145 prostate = system: DU-145 prostate
OVCAR-4 ovarian = system: OVCAR-4 ovarian
OVCAR-5 ovarian = system: OVCAR-5 ovarian
MCF7 breast = system: MCF7 breast
SK-MEL-5 melanoma = system: SK-MEL-5 melanoma
T-47D breast = system: T-47D breast
MDA-MB-231 breast = system: MDA-MB-231 breast
UO-31 renal = system: UO-31 renal
NCI-H226 lung = system: NCI-H226 lung
EKVX NSCLC = system: EKVX NSCLC
PC-3 prostate = system: PC-3 prostate
HCC-2998 colon = system: HCC-2998 colon
786-0 renal = system: 786-0 renal
A549 NSCLC = system: A549 NSCLC
MOLT-4 leukemia = system: MOLT-4 leukemia
HOP-92 NSCLC = system: HOP-92 NSCLC
UACC-257 melanoma = system: UACC-257 melanoma
SK-OV-3 ovarian = system: SK-OV-3 ovarian
SNB-75 CNS = system: SNB-75 CNS
NCI-H460 lung = system: NCI-H460 lung
M14 melanoma = system: M14 melanoma
TK-10 renal = system: TK-10 renal
CAKI-1 renal = system: CAKI-1 renal
K-562 leukemia = system: K-562 leukemia

Question: Which results are given for `C#C[C@]1(O)CC[C@H]2[C@@H]3CC=C4c5sc(Nc6cc(OC)ccc6OC)nc5CC[C@]4(C)[C@H]3CC[C@@]21C`?
Answer: GI50 (SF-268 CNS): 3.55 µM; TGI (SF-268 CNS): 33 µM; GI50 (SN12C renal): 3.9 µM; TGI (SN12C renal): 32.7 µM; GI50 (IGROV1 ovarian): 2.93 µM; TGI (IGROV1 ovarian): 25 µM; GI50 (CCRF-CEM leukemia): 0.619 µM; TGI (CCRF-CEM leukemia): > 100 µM; GI50 (A498 renal): 0.429 µM; TGI (A498 renal): 4.62 µM; GI50 (HOP-62 NSCLC): 1.96 µM; TGI (HOP-62 NSCLC): 47.9 µM; GI50 (SNB-19 CNS): 3.63 µM; TGI (SNB-19 CNS): 24.3 µM; GI50 (UACC-62 melanoma): 1.56 µM; TGI (UACC-62 melanoma): 9.02 µM; GI50 (NCI-H23 lung): 2.49 µM; TGI (NCI-H23 lung): 28.3 µM; GI50 (RPMI-8226 leukemia): 0.193 µM; TGI (RPMI-8226 leukemia): 0.694 µM; GI50 (SK-MEL-2 melanoma): 2.28 µM; TGI (SK-MEL-2 melanoma): 42.1 µM; GI50 (U251 CNS): 0.643 µM; TGI (U251 CNS): 13.3 µM; GI50 (NCI/ADR-RES ovarian): 3.11 µM; TGI (NCI/ADR-RES ovarian): > 100 µM; GI50 (HCT-116 colon): 1.12 µM; TGI (HCT-116 colon): 2.77 µM; GI50 (SK-MEL-28 melanoma): 0.406 µM; TGI (SK-MEL-28 melanoma): 5.32 µM; GI50 (OVCAR-3 ovarian): 2.39 µM; TGI (OVCAR-3 ovarian): 9.14 µM; GI50 (MALME-3M melanoma): 1.69 µM; TGI (MALME-3M melanoma): 8.76 µM; GI50 (KM12 colon): 2.33 µM; TGI (KM12 colon): 11 µM; GI50 (HL-60(TB) leukemia): 0.646 µM; TGI (HL-60(TB) leukemia): 4.07 µM; GI50 (MDA-MB-435): 2.79 µM; TGI (MDA-MB-435): 19.2 µM; GI50 (NCI-H522 lung): 3.9 µM; TGI (NCI-H522 lung): 29.8 µM; GI50 (HT29 colon): 1.8 µM; TGI (HT29 colon): > 100 µM; GI50 (COLO 205 colon): 2.43 µM; TGI (COLO 205 colon): 7.83 µM; GI50 (SR leukemia): 0.306 µM; TGI (SR leukemia): 24.8 µM; GI50 (BT-549 breast): 0.61 µM; TGI (BT-549 breast): 7.03 µM; GI50 (SF-539 CNS): 0.449 µM; TGI (SF-539 CNS): 1.68 µM; GI50 (OVCAR-8 ovarian): 2.94 µM; TGI (OVCAR-8 ovarian): > 100 µM; GI50 (ACHN renal): 1.9 µM; TGI (ACHN renal): 16.5 µM; GI50 (HS 578T breast): 0.202 µM; TGI (HS 578T breast): 0.597 µM; GI50 (DU-145 prostate): 1.91 µM; TGI (DU-145 prostate): 7.47 µM; GI50 (OVCAR-4 ovarian): 4.46 µM; TGI (OVCAR-4 ovarian): > 100 µM; GI50 (OVCAR-5 ovarian): 4.14 µM; TGI (OVCAR-5 ovarian): 25.7 µM; GI50 (MCF7 breast): 0.454 µM; TGI (MCF7 breast): 1.74 µM; GI50 (SK-MEL-5 melanoma): 2.3 µM; TGI (SK-MEL-5 melanoma): 5.58 µM; GI50 (T-47D breast): 3.04 µM; TGI (T-47D breast): > 100 µM; GI50 (MDA-MB-231 breast): 2.36 µM; TGI (MDA-MB-231 breast): > 100 µM; GI50 (UO-31 renal): 1.41 µM; TGI (UO-31 renal): 12.9 µM; GI50 (NCI-H226 lung): 3.04 µM; TGI (NCI-H226 lung): 20.9 µM; GI50 (EKVX NSCLC): 2.86 µM; TGI (EKVX NSCLC): 42.5 µM; GI50 (PC-3 prostate): 0.627 µM; TGI (PC-3 prostate): 30 µM; GI50 (HCC-2998 colon): 4.11 µM; TGI (HCC-2998 colon): 23.2 µM; GI50 (786-0 renal): 0.392 µM; TGI (786-0 renal): 5.08 µM; GI50 (A549 NSCLC): 3.1 µM; TGI (A549 NSCLC): 95.7 µM; GI50 (MOLT-4 leukemia): 0.367 µM; TGI (MOLT-4 leukemia): 16.2 µM; GI50 (HOP-92 NSCLC): 4.66 µM; TGI (HOP-92 NSCLC): 74.7 µM; GI50 (UACC-257 melanoma): 1.95 µM; TGI (UACC-257 melanoma): 9.18 µM; GI50 (SK-OV-3 ovarian): 1.08 µM; TGI (SK-OV-3 ovarian): 4.37 µM; GI50 (SNB-75 CNS): 0.386 µM; TGI (SNB-75 CNS): 13.7 µM; GI50 (NCI-H460 lung): 2.16 µM; TGI (NCI-H460 lung): 15.1 µM; GI50 (M14 melanoma): 1.04 µM; TGI (M14 melanoma): 4.08 µM; GI50 (TK-10 renal): 4.15 µM; TGI (TK-10 renal): 27.5 µM; GI50 (CAKI-1 renal): 1.11 µM; TGI (CAKI-1 renal): 4.68 µM; GI50 (K-562 leukemia): 0.553 µM; TGI (K-562 leukemia): > 100 µM
